Experimental data from US10329309B2, “3-(3H-imidazo[4,5-B]pyridin-2-yl)-1H-pyrazolo[4,3-B]pyridines and therapeutic uses thereof” (Samumed, LLC, priority 2015, dated 2019).

Legend:
Type in all cases: cell-based
[1] = test system: primary human fibroblasts derived from IPF patients (LL29 cells), α-smooth muscle actin (αSMA); test: Inhibition of the fibrotic process: TGF-β1-treated primary human fibroblasts from IPF patients, αSMA staining; settings: Fibroblast, 96 h, 4 days; for EC50: LL29 fibroblasts from IPF patients, TGF-β1 20 ng/mL, inhibition of fibrotic process; for inhibition at 10 µM: LL29 fibroblasts, TGF-β1 treated, read-out: percent inhibition at 10 μM (given for EC50 of >10 μM)
Summary of the method: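 Potency reflects suppression of TGF-β1-driven αSMA expression in IPF patient fibroblasts over 4 days. Values are EC50s from normalized αSMA-positive cell counts, with % inhibition at 10 μM when EC50 exceeded 10 μM.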

[2] = test system: Wnt activity (Sp5-Luc reporter, SW480 colon carcinoma cells); test: Screening assay for Wnt activity: Sp5-Luc reporter gene assay in SW480 cells; settings: Homo sapiens; for inhibition at 10 µM: 10 μM compound, read-out: percent inhibition at 10 μM (given for EC50 of >10 μM); for EC50: overnight incubation, 10-point dose-response from 10 μM
Summary of the method: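 Luminescence (BrightGlo) read after overnight 37 °C exposure of Sp5-Luc SW480 reporter cells, 4,000/well in 1% FBS, to compound dosed 1:3 over 10 points from 10 μM with 0.1% DMSO. Values normalized to DMSO-only cells, fitted with variable-slope four-parameter model; where EC50 exceeds 10 μM, % inhibition at 10 μM reported.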

[3] = test system: SW480 colon cancer cells; test: Cell viability assay (CellTiter-Blue), four days; settings: Homo sapiens, 96 h; for EC50: CellTiter-Blue cell viability; for inhibition at 10 µM: read-out: percent inhibition at 10 μM (given for EC50 of >10 μM)
Summary of the method: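 Four-day viability readout in SW480 cells: compound at 0.0045–10 μM (1:3 series), DMSO controls in eight replicates, CellTiter-Blue fluorescence after ~3 h. Values are regression-derived EC50s, or percent inhibition at 10 μM when EC50 exceeds 10 μM.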

Row | EC50 [2] [µM] | EC50 [3] [µM] | Structure (SMILES) | EC50 [1] [µM] | inhibition at 10 µM [1] [%] | inhibition at 10 µM [2] [%] | inhibition at 10 µM [3] [%]
1 | 4.34 | 3.91 | CN1CCN(c2ccnc3[nH]c(-c4n[nH]c5ccc(-c6cnccn6)nc45)nc23)CC1 [Compound 648, 3-(7-(4-Methylpiperazin-1-yl)-3H-imidazo[4,5-b]pyridin-2-yl)-5-(pyrazin-2-yl)-1H-pyrazolo[4,3-b]pyridine] | > 10 | 0 | – | –
2 | > 10 | > 10 | CCC(=O)Nc1cncc(-c2ccc3[nH]nc(-c4nc5c(-c6cccc(F)c6)ccnc5[nH]4)c3n2)c1 [Compound 1, N-(5-(3-(7-(3-fluorophenyl)-3H-imidazo[4,5-b]pyridin-2-yl)-1H-pyrazolo [4,3-b]pyridin-5-yl)pyridin-3-yl)propionamide] | > 10 | 3 | 51.6 | 19.9
3 | > 10 | 4.65 | CCC(=O)Nc1cncc(-c2ccc3[nH]nc(-c4nc5c(N6CCCCC6)ccnc5[nH]4)c3n2)c1 [Compound 169, N-(5-(3-(7-(piperidin-1-yl)-3H-imidazo[4,5-b]pyridin-2-yl)-1H-pyrazolo[4,3-b]pyridin-5-yl)pyridin-3-yl)propionamide] | 5.3 | – | 44.2 | –
4 | > 10 | > 10 | CCCCC(=O)Nc1cncc(-c2ccc3[nH]nc(-c4nc5c(-c6cc(F)cc(NCCN(C)C)c6)ccnc5[nH]4)c3n2)c1 [Compound 467, N-(5-(3-(7-(3-((2-(dimethylamino)ethyl)amino)-5-fluorophenyl)-3H-imidazo[4,5-b]pyridin-2-yl)-1H-pyrazolo[4,3-b]pyridin-5-yl)pyridin-3-yl)pentanamide] | 2.26 | – | 34.1 | 2.7
5 | > 10 | > 10 | COc1cccc(-c2ccnc3[nH]c(-c4n[nH]c5ccc(-c6cncc(OC7CCNCC7)c6)nc45)nc23)c1 [Compound 1025, 3-(7-(3-Methoxyphenyl)-3H-imidazo[4,5-b]pyridin-2-yl)-5-(5-(piperidin-4-yloxy)pyridin-3-yl)-1H-pyrazolo[4,3-b]pyridine] | 2.91 | – | 39.2 | 15.8
6 | > 10 | > 10 | Cc1cn(-c2ccnc3[nH]c(-c4n[nH]c5ccc(-c6cncc(NC(=O)CC(C)C)c6)nc45)nc23)cn1 [Compound 198, 3-methyl-N-(5-(3-(7-(4-methyl-1H-imidazol-1-yl)-3H-imidazo[4,5-b]pyridin-2-yl)-1H-pyrazolo[4,3-b]pyridin-5-yl)pyridin-3-yl)butanamide] | > 10 | 0 | 27.6 | 46
7 | > 10 | > 10 | c1cncc(-c2ccc3[nH]nc(-c4nc5cccnc5[nH]4)c3n2)c1 [Compound 256, 3-(3H-imidazo[4,5-b]pyridin-2-yl)-5-(pyridin-3-yl)-1H-pyrazolo[4,3-b]pyridine] | > 10 | 10.4 | 43.4 | 22.2
8 | > 10 | > 10 | CCNCc1cncc(-c2ccc3[nH]nc(-c4nc5c(-c6cc(F)cc(NCCN(C)C)c6)ccnc5[nH]4)c3n2)c1 [Compound 454, N^1-(3-(2-(5-(5-((ethylamino)methyl)pyridin-3-yl)-1H-pyrazolo[4,3-b]pyridin-3-yl)-3H-imidazo[4,5-b]pyridin-7-yl)-5-fluorophenyl)-N^2,N^2-dimethylethane-1,2-diamine] | 3.51 | – | 43.4 | 42.2
9 | > 10 | > 10 | CC(C)C(=O)Nc1cncc(-c2ccc3[nH]nc(-c4nc5c(-c6cccnc6)ccnc5[nH]4)c3n2)c1 [Compound 93, N-(5-(3-(7-(pyridin-3-yl)-3H-imidazo[4,5-b]pyridin-2-yl)-1H-pyrazolo[4,3-b]pyridin-5-yl)pyridin-3-yl)isobutyramide] | > 10 | 0 | 10.2 | 8.1
10 | > 10 | > 10 | Cn1cc(-c2ccc3[nH]nc(-c4nc5c(-c6ccc7c(c6)OCO7)ccnc5[nH]4)c3n2)c(CO)n1 [Compound 1152, (4-(3-(7-(Benzo[d][1,3]dioxol-5-yl)-3H-imidazo[4,5-b]pyridin-2-yl)-1H-pyrazolo[4,3-b]pyridin-5-yl)-1-methyl-1H-pyrazol-3-yl)methanol] | 0.317 | – | 15.4 | 28.2
11 | > 10 | > 10 | c1cc(N2CCCCC2)c2nc(-c3n[nH]c4ccc(-c5cncc(OCCN6CCCC6)c5)nc34)[nH]c2n1 [Compound 610, 3-(7-(Piperidin-1-yl)-3H-imidazo[4,5-b]pyridin-2-yl)-5-(5-(2-(pyrrolidin-1-yl)ethoxy)pyridin-3-yl)-1H-pyrazolo[4,3-b]pyridine] | 2.27 | – | 4.8 | 3.5
12 | > 10 | > 10 | Fc1cccc(-c2ccnc3[nH]c(-c4n[nH]c5ccc(-c6cncc(OC7CCNCC7)c6)nc45)nc23)c1 [Compound 512, 3-(7-(3-fluorophenyl)-3H-imidazo[4,5-b]pyridin-2-yl)-5-(5-(piperidin-4-yloxy)pyridin-3-yl)-1H-pyrazolo[4,3-b]pyridine] | 1.66 | – | 45 | 15.7

Second part, the compound before the results:

Row | Structure (SMILES) | EC50 [2] [µM] | EC50 [3] [µM] | EC50 [1] [µM] | inhibition at 10 µM [1] [%] | inhibition at 10 µM [2] [%] | inhibition at 10 µM [3] [%]
13 | O=C(Nc1cncc(-c2ccc3[nH]nc(-c4nc5c(-c6ccccn6)ccnc5[nH]4)c3n2)c1)c1ccccc1 [Compound 151, N-(5-(3-(7-(Pyridin-2-yl)-3H-imidazo[4,5-b]pyridin-2-yl)-1H-pyrazolo[4,3-b]pyridin-5-yl)pyridin-3-yl)benzamide] | > 10 | > 10 | > 10 | 0 | 6.4 | 2.7
14 | Cc1ncc(-c2ccc3[nH]nc(-c4nc5c(-c6ccoc6)ccnc5[nH]4)c3n2)n1C [Compound 685, 5-(1,2-Dimethyl-1H-imidazol-5-yl)-3-(7-(furan-3-yl)-3H-imidazo[4,5-b]pyridin-2-yl)-1H-pyrazolo[4,3-b]pyridine] | 2.82 | 4.19 | > 10 | 0 | – | –
15 | CN(C)c1cncc(-c2ccc3[nH]nc(-c4nc5c(-c6cccs6)ccnc5[nH]4)c3n2)c1 [Compound 343, N,N-dimethyl-5-(3-(7-(thiophen-2-yl)-3H-imidazo[4,5-b]pyridin-2-yl)-1H-pyrazolo [4,3-b]pyridin-5-yl)pyridin-3-amine] | > 10 | > 10 | 1.18 | – | 31.7 | 17.5
16 | Cc1cn(-c2ccnc3[nH]c(-c4n[nH]c5ccc(-c6cncc(NC(=O)C7CCC7)c6)nc45)nc23)cn1 [Compound 217, N-(5-(3-(7-(4-methyl-1H-imidazol-1-yl)-3H-imidazo[4,5-b]pyridin-2-yl)-1H-pyrazolo[4,3-b]pyridin-5-yl)pyridin-3-yl)cyclobutanecarboxamide] | > 10 | > 10 | 6.1 | – | 13.9 | 2.1
17 | Fc1cccc(-c2ccnc3[nH]c(-c4n[nH]c5ccc(-c6cncc(CN7CCC(F)(F)C7)c6)nc45)nc23)c1 [Compound 26, 5-(5-((3,3-Difluoropyrrolidin-1-yl)methyl)pyridin-3-yl)-3-(7-(3-fluorophenyl)-3H-imidazo[4,5-b]pyridin-2-yl)-1H-pyrazolo[4,3-b]pyridine] | 0.885 | 0.409 | 0.344 | – | – | –
18 | Fc1cccc(-c2ccnc3[nH]c(-c4n[nH]c5ccc(C6CCNCC6)nc45)nc23)c1 [Compound 505, 3-(7-(3-fluorophenyl)-3H-imidazo[4,5-b]pyridin-2-yl)-5-(piperidin-4-yl)-1H-pyrazolo[4,3-b]pyridine] | > 10 | 8.3 | 4.93 | – | 16 | –
19 | CC(C)(C)CC(=O)Nc1cncc(-c2ccc3[nH]nc(-c4nc5cccnc5[nH]4)c3n2)c1 [Compound 268, N-(5-(3-(3H-Imidazo[4,5-b]pyridin-2-yl)-1H-pyrazolo[4,3-b]pyridin-5-yl)pyridin-3-yl)-3,3-dimethylbutanamide] | > 10 | > 10 | 7.2 | – | 1.9 | 0
20 | O=C(Nc1cncc(-c2ccc3[nH]nc(-c4nc5c(-c6ccccc6F)ccnc5[nH]4)c3n2)c1)C1CCCC1 [Compound 78, N-(5-(3-(7-(2-fluorophenyl)-3H-imidazo[4,5-b]pyridin-2-yl)-1H-pyrazolo [4,3-b]pyridin-5-yl)pyridin-3-yl)cyclopentanecarboxamide] | > 10 | > 10 | 2.83 | – | 39.4 | 12.3
